Data published in patent US8097752B2, “Antiprotozoal ring-substituted phospholipids” (priority 2002, dated 2012).
Where a name gives a salt, the structure may show the parent alone. Read-outs that look alike come from different tables or passages of the source.

What was measured:
[1] = system: promastigote forms of Leishmania donovani; experiment: In vitro antileishmanial activity in promastigote cultures (MTT), L. donovani; assay type: cell-based, Leishmania donovani MHOM/IN/80/DD8/LEM 703; conditions: promastigotes, 72 h incubation, mean ± SEM, n = 3-4 (each run in duplicate), read-out: IC50 (μM) L. donovani MON 703
Protocol: (§1) Determination of in Vitro Antileishmanial Activity in Promastigote Cultures.
(§2) The effect of the phospholipids according to the present invention against the promastigote forms of Leishmania donovani and Leishmania infantum was evaluated using an MTT (3-(4,5-dimethylthiazol-2yl)-2,5-diphenyltetrazolium bromide)-based enzymatic method as a marker of cell viability and was compared with that of the ether phospholipid hexadecylphosphocholine (Miltefosine). Thus, promastigotes of Leishmania infantum MHOM/TN/80/IPT1/LEM 235 and Leishmania donovani MHOM/IN/80/DD8/LEM 703, were grown in RPMI 1640 supplemented with 10% FCS, L. glutamine and antibiotics, at 26° C. All new compounds were dissolved in DMSO to a final concentration of 9.625 mM and linear 3-fold dilutions were done in the culture medium. 25 μL of promastigote culture at 5×10^5 cells/mL were cultured in a 96-well flat-bottom plate (Costar 3696), and incubated with 25 μL of different drug concentrations at 26° C. After 72 h, 10 μL of 5 mg/mL MTT in PBS (SIGMA M2128) were added and incubation was continued for 3 h. The reaction was stopped by the addition of 50 μL of 50% isopropanol, 10% SDS under gentle shacking for 30 min. Absorbance was measured at 550 nm with reference at 620 nm in a TRITURUS microplate reader.

[2] = system: THP1 cells; experiment: Assessment of cytotoxicity in THP1 monocyte cells (SYBR-14/PI staining, flow cytometry); conditions: THP1 monocytes infected with L. donovani and L. infantum; 72 hours; concentrations as low as 50 μM
Protocol: Thus, we proceeded to assess the cytotoxicity of four inventive compounds as well as miltefosine in the human monocytic cell line THP1.
Assessment of Cytotoxicity in THP1 Monocyte Cells.
As a quantitative measurement of the cell damage after incubation with different concentrations of drugs dual staining with SYBR-14 and PI (Molecular Probes, The Netherlands) was used followed by flow cytometry.
THP1 cell cultures were incubated at 1×10^6 cells/ml with different concentrations of the compounds ranging from 50 to 1.56 μM. After an incubation period of 72 hours approximately 4×10^6 cells were suspended in labeling buffer (10 mM HEPES, 150 mM NaCl, 10% BSA, pH 7.4) and 10 μg/ml PI and 0.1 mg/ml SYBR-14 were added. The cultures were incubated at 37° C. for 30 minutes before analysis by flow cytometry.
Cell samples were analyzed on an Epics Elite model flow cytometer (Coulter, Miami, Fla.). The green fluorescence of SYBR-14 and the red fluorescence of PI were excited at 488 nm. At least 10,000 cells were analyzed per sample and each staining experiment was repeated twice. Data analysis was performed on fluorescence intensities that excluded cell autofluorescence and cell debris.
THP1 monocytes infected with the appropriate Leishmania species were used for the evaluation of the leishmanicidal activity of the compounds against the intracellular amastigote stages of the parasite.

[3] = system: promastigote forms of Leishmania infantum; experiment: In vitro antileishmanial activity in promastigote cultures (MTT), L. infantum; assay type: cell-based, Leishmania infantum MHOM/TN/80/IPT1/LEM 235; conditions: promastigotes, 72 h incubation, mean ± SEM, n = 3-4 (each run in duplicate), read-out: IC50 (μM) L. infantum MON 235
Protocol: as §1, §2

[4] = system: visceral leishmaniasis; conditions: cited from earlier work
[5] = system: cutaneous leishmaniasis; conditions: phase I study; 100-150 mg for 3 weeks; cited from earlier work

For `C[N+](C)(C)CCOP(=O)([O-])OCCCCCCCCCCC=C1CCCCC1` [Example 13, 1-{2-[(11-Cyclohexylideneundecyloxy)hydroxyphosphinyloxy]ethyl}-N,N,N-trimethylammonium inner salt], the IC50 [1] was 2.4 ± 0.6 µM, the “cytotoxic effect on THP1 cells (percentage of live THP1 cells, FIG. 1)” value [2] was “not observed” and the IC50 [3] was 5.2 ± 1.5 µM.

In the case of `C[N+](C)(C)CCOP(=O)([O-])OCCCCCCCCCCC=C1C2CC3CC(C2)CC1C3` [Example 19, 1-{2-[(11-Adamantylideneundecyloxy)hydroxyphosphinyloxy]ethyl}-N,N,N-trimethylammonium inner salt], the IC50 [1] is reported as 3.16 ± 0.63 µM, the “cytotoxic effect on THP1 cells (percentage of live THP1 cells, FIG. 1)” value [2] is reported as “not observed” and the IC50 [3] is reported as 6.75 ± 2.4 µM.

In the case of `CCCCCCCCCCCCCCCCOP(=O)([O-])OCC[N+](C)(C)C` [Miltefosine, hexadecylphosphocholine], the IC50 ([1]; Leishmania donovani) is listed as 23.7 ± 4.07 µM, the “effectiveness in treating mice infected with visceral leishmaniasis” value ([4]; mice) is listed as “highly effective” and the “effectiveness of oral treatment relative to subcutaneous administration of pentostam” value ([4]; oral miltefosine vs subcutaneous pentostam, mice infected with visceral leishmaniasis) is listed as 600 fold. The cure rate [5] was 94% and the IC50 ([3]; Leishmania infantum) was 22.6 ± 3.6 µM.
